From patent publication US9682995B2, “Amino-substituted isothiazoles” (BAYER PHARMA AKTIENGESELLSCHAFT, priority 2013, dated 2017)

Legend:
human kinase Mps-1 = human kinase Mps-1 (Homo sapiens (Human), UniProt P33981); assay: Mps-1 kinase assay (TR-FRET); type: biochemical; conditions: 10 μM ATP; read-out: Mps1 avg (IC50 [mol/l])
How it was run: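 GST-tagged full-length human Mps-1 (~0.5 nM) preincubated 15 min with compound, then reacted 60 min at 22 °C with 10 μM ATP and 1 μM biotinylated peptide in Hepes pH 7.7 buffer. Phosphoproduct detected by TR-FRET (Eu anti-phospho-Ser/Thr, SA-XLent); 665/620 ratio normalised to no-inhibitor and no-enzyme controls.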

HeLa = assay: Proliferation assay (crystal violet), HeLa; type: cell-based; conditions: Homo sapiens, 96 h, 4 days, read-out: Inhibition of proliferation IC50 HeLa
How it was run: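 Tumour cells seeded at 1000–5000 cells/well in medium with 10% FCS, dosed after 24 h at 0.001–10 μM (0.5% DMSO final) for 4 days. Cell number read by crystal-violet staining after glutaraldehyde fixation (A595), normalised to zero-point plate (0%) and untreated cells (100%); IC50 from 4-parameter fit.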

Sequence of human kinase Mps-1 (P33981 whole entry): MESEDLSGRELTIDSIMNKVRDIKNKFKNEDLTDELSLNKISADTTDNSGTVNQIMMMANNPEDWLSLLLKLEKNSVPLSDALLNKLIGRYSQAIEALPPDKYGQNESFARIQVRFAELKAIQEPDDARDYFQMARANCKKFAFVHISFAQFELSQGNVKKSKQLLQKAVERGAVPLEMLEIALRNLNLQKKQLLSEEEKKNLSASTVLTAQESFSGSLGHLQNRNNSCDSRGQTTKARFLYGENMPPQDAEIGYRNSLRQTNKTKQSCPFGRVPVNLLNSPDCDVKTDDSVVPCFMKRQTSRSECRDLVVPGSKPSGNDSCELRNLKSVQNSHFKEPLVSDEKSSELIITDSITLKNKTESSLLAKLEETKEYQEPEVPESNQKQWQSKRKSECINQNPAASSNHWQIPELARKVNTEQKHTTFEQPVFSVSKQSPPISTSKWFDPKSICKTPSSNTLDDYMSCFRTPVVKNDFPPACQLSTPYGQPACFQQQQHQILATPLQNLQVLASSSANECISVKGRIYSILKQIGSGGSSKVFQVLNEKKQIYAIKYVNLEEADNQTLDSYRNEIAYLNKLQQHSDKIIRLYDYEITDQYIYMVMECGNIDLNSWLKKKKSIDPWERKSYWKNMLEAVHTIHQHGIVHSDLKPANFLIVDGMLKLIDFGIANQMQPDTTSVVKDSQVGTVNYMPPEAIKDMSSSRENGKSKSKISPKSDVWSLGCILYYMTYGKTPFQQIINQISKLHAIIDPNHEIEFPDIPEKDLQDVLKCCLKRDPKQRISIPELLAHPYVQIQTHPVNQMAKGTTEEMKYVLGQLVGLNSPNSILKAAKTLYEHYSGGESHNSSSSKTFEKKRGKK

Row | SMILES | IC50 (human kinase Mps-1) | IC50 (HeLa)
1 | Cc1nsc(Nc2cnc3cc(C(F)(F)F)ccc3n2)c1C(=O)Nc1ccc(Cl)c(F)c1 [Example 68, N-(4-Chloro-3-fluorophenyl)-3-methyl-5-{[6-(trifluoromethyl)quinoxalin-2-yl]amino}-1,2-thiazole-4-carboxamide] | > 20 µM | 1 µM
2 | CNC(=O)c1ccc(Nc2snc(C)c2C(=O)Nc2ccc(F)c(F)c2)nn1 [Example 80, 6-({4-[(3,4-Difluorophenyl)carbamoyl]-3-methyl-1,2-thiazol-5-yl}amino)-N-methylpyridazine-3-carboxamide] | > 20 µM | 4.4 µM
3 | Cc1cncc(Nc2snc(C)c2C(=O)Nc2ccc(F)c(F)c2)n1 [Example 69] | > 20 µM | 7 µM
4 | Cc1nsc(Nc2cncc(Cl)n2)c1C(=O)Nc1ccc(F)c(F)c1 [Example 71, 5-[(6-Chloropyrazin-2-yl)amino]-N-(3,4-difluorophenyl)-3-methyl-1,2-thiazole-4-carboxamide] | > 20 µM | 0.38 µM
5 | Cc1nsc(Nc2cnc(Br)cn2)c1C(=O)Nc1ccc(F)c(F)c1 [Example 77, 5-[(5-Bromopyrazin-2-yl)amino]-N-(3,4-difluorophenyl)-3-methyl-1,2-thiazole-4-carboxamide] | > 20 µM | 0.2 µM
6 | Cc1nsc(Nc2cncc(C(F)(F)F)n2)c1C(=O)Nc1ccc(F)c(F)c1 [Example 82, N-(3,4-Difluorophenyl)-3-methyl-5-{[6-(trifluoromethyl)pyrazin-2-yl]amino}-1,2-thiazole-4-carboxamide] | > 20 µM | 0.11 µM
7 | COc1ccc(NC(=O)c2c(C)nsc2Nc2ncc(C(=O)N3CCOCC3)s2)cc1F [Example 93, N-(3-Fluoro-4-methoxyphenyl)-3-methyl-5-{[5-(morpholin-4-ylcarbonyl)-1,3-thiazol-2-yl]amino}-1,2-thiazole-4-carboxamide] | > 20 µM | 10 µM
8 | CCc1ccccc1NC(=O)c1c(C)nsc1Nc1nccc(-c2ccccc2)n1 [Example 5, N-(2-Ethylphenyl)-3-methyl-5-[(4-phenylpyrimidin-2-yl)amino]-1,2-thiazole-4-carboxamide] | > 20 µM | > 10 µM
9 | COc1ccc(NC(=O)c2c(C)nsc2Nc2cnc(C(F)(F)F)cn2)cn1 [Example 85, N-(6-methoxypyridin-3-yl)-3-methyl-5-{[5-(trifluoromethyl)pyrazin-2-yl]amino}-1,2-thiazole-4-carboxamide] | > 20 µM | 1 µM
